Reference: patent US8841269B2, “Polynucleotides for use in treating and diagnosing cancers” (Creighton University, priority 2010, dated 2014)
“Also recorded” adds a separate entry of the source.

What was measured:
ERK1/2 = assay: Estrogen induced ERK1/2 activation (phos-ERK Western blot) in MDA-MB-231; type: cell-based, human; conditions: MDA-MB-231, 10 nmol/L E2 after estrogen starvation
Experimental: After mixed with gel-loading buffer and boiled for 5 minutes, the protein samples were separated with 10% SDS-PAGE and transferred to a PVDF membrane (Millipore, Billerica, Mass.). The blots were probed with specific first antibodies and appropriate second antibodies. The blots were visualized with enhanced chemiluminescence (ECL) reagents (Pierce, Minneapolis, Minn.) and documented with a Fluor Chem FC2 (Alpha Innotech, Santa Clara, Calif.) image system. Gel density was quantified with Quantity One and expressed as a relative value against β-actin. The anti-ERK1/2 (#9102) and antipERK1/2 (#9106) were purchased from Cell Signaling Technology (Danvers, Mass.). Anti-ER-α66 (RB-9016) was obtained from Thermoscientific (Rockford, Ill.). Anti-ER-α36 antibody was an affinity-purified rabbit polyclonal anti-ER-36 antibody generated as a custom service from Pacific Immunology Corp (Ramona, Calif.). The ER-α36 antibody was raised against a synthetic peptide antigen corresponding to the unique C-terminal 20 aa of ER-α36.
ER-α36 is mainly localized on the plasma membrane and mediates the non-genomic estrogen pathways (Wang et al., 2005, Biochem. Biophys. Res. Commun. 336:1023-7, Wang et al., 2006, Proc. Natl. Acad. Sci. U.S.A., 103:9063-8). We reasoned that the inhibition on ER-α36 expression by let-7 family miRNAs might dampen the non-genomic estrogen pathway. […]

[1] = Stability of miRNAs in serum (room temperature, freeze/thaw); type: physicochemical, human; conditions: serum from a healthy person, freeze/thaw up to eight times
Experimental: (§1) FIG. 21. Stability of miRNAs in room temperature for number of time points. 300 μl of sera from a healthy person was thawed on ice and lysed with an equal volume of 2× Denaturing Solution (Ambion). RNA was isolated spiked sera using the mirVana PARIS kit following the manufacturer's protocol for liquid samples (Ambion). RNA was eluted with 50 μl of nuclease-free water. This experiment was performed in triplicates.
as §1, with “22.” for “21.”, “freeze/thaws.” for “room temperature for number of time points.”, “ice, exogenous miRNAs were spiked in,” for “ice”, “and then performed freeze/thaw cycles for the indicated times, then” for “and”
Second, we wanted to know whether our lab conditions such as temperature and freezing and thawing affect the stability of miRNAs. We selected a serum sample from healthy […], and incubated in room temperature for a series of time points (spiked three exogenous miRNAs as external controls) (FIG. 21). As expected, the selected miRNAs were very stable throughout the experiment. This observation is in consistent with the literature (Mitchell et al., 2008, Proc. Natl. Acad. Sci. U.S.A 105:10513-8). […]

[2] = system: ER-α negative MDA-MB-231 cell line; assay: MTT cell proliferation assay in MDA-MB-231; type: cell-based, human; conditions: MDA-MB-231, DMEM with 10% FBS
Experimental: FIG. 10. The effects of let-7a, let-7b, and let-7i miRNAs on cell proliferation in ER-α negative MDA-MB-231 cell line. Cancer cell proliferation was monitored by MTT assays in the same way as in MCF7 cell line except MDA-MB-231 cells were grown in DMEM with 10% FBS.
MTT cell proliferation assay. MCF7 cells were transfected with let-7 mimics or negative controls (60 nmol/L) in normal growth medium for 1 day, or in medium with 2.5% charcoal-stripped FBS for 2 days to exhaust endogenous estrogen, following the protocol of siPORT NeoFX Transfection Agent (Applied Biosystems). For the experiment in normal growth medium, 10^4 cells in the volume of 100 μL were seeded in a 96-well plate for 12 hours and assay lasted for another 4 days. For experiments in E2 free medium, 1.5 10^4 cells were seeded in a 96-well plate for 12 hours and then exposed to 10 nmol/L E2, or not, for up to 4 days. For both experiments, each treatment had 12 replicates on the plate. The cells were then incubated in 0.83 mg/mL 3-[4,5-dimethylthiazol-2-yl]-2,5-diphenyltetrazolium bromide (MTT) in growth medium at 37° C. for 4 h and lysed in 100 μL of DMSO at room temperature for 15 min. The absorbance in each well was measured at 490 nm by an ELx800 Absorbance Microplate Reader (Biotek). Cell proliferation was normalized to day 0.

[3] = system: 3′ UTR of human ER-α gene; assay: Luciferase reporter assay, ER-α 3′ UTR let-7 binding site in pMIR-REPORT; type: cell-based; conditions: MCF7 cells; for luciferase activity, ER-α binding site in 3′UTR of luciferase: 60 nmol/L mimics, vs negative control miRNA; for luciferase activity, mutated ER-α binding sequence: mutated sequence in 3′UTR of luciferase
Text: Luciferase assay. A fragment of the 3′ UTR of human ER-α gene, which contains the putative let-7 target sites, was synthesized (IDT technology). With attached SpeI and HindIII restriction sites, the fragments are 48 by long. The sense strand was 5′-[…] (SEQ ID NO:39) while the antisense strand was 5′-[…] (SEQ ID NO:40). The cloning and transfection followed previous protocol (Hu et al., 2009, J Immunol 183:1617-24). Sixty nanomolar let-7 mimics, anti-let-7 inhibitors, pre-miR negative control #1 (AM17110, Ambion), or anti-miR negative control #1 (AM17010, Ambion) were transfected together with a 0.25 μg luciferase construct and a 0.25 μg β-galactosidase plasmid, which were used as a normalization reference. After 24 hour post-transfection, the luciferase activity was measured in a Veritas Microplate Luminometer (Turner Biosystems). Every treatment had 3 replicates. The luciferase activity was expressed as a fraction of negative control.

Substance	estrogen induced activation of the ERK1/2 (nongenomic estrogen pathway) (ERK1/2)	stability in repeated freeze/thaws [1]	cell growth (MTT) [2]	luciferase activity, ER-α binding site in 3′UTR of luciferase [3]	luciferase activity, mutated ER-α binding sequence [3]
let-7b: let-7b miRNA (mimic), 3′-UUGGUGUGUUGGAUGAUGGAGU-5′ (SEQ ID NO:8) (chemistry not given here; listed 3' to 5')	significantly inhibited	relatively stable	None of three miRNAs significantly inhibited cell growth	decreased the luciferase activity; also recorded: significantly inhibited the luciferase activity	abrogated the effects; also recorded: did not show inhibition
let-7i: let-7i miRNA (mimic), 3′-UUGUCGUGUUUGAUGAUGGAGU-5′ (SEQ ID NO:14) (chemistry not given here; listed 3' to 5')	significantly inhibited	relatively stable	None of three miRNAs significantly inhibited cell growth	decreased the luciferase activity; also recorded: significantly inhibited the luciferase activity	abrogated the effects; also recorded: did not show inhibition
